Assay results from publication doi:10.1101/2023.10.20.563248v1 (biorxiv, 2023).

Assays:
[1] = molecular target: LIMK2 (Homo sapiens, UniProt P53671); test: NanoBRET tracer displacement, HEK293T; assay type: cell-based
[2] = molecular target: AXL (Homo sapiens, UniProt P30530); conditions: 1 µM; inhibitor
[3] = molecular target: CDK3/CycC (Homo sapiens, UniProt Q00526); conditions: 1 µM; inhibitor
[4] = molecular target: CK1g1 (Homo sapiens, UniProt Q9HCP0); conditions: 1 µM; inhibitor
[5] = molecular target: COT (Homo sapiens, UniProt P41279); conditions: 1 µM; inhibitor
[6] = molecular target: EEF2K (Homo sapiens, UniProt O00418); conditions: 1 µM; inhibitor
[7] = molecular target: EPHA3 (Homo sapiens, UniProt P29320); conditions: 1 µM; inhibitor
[8] = molecular target: EPHA6 (Homo sapiens, UniProt Q9UF33); conditions: 1 µM; inhibitor
[9] = molecular target: FER (Homo sapiens, UniProt P16591); conditions: 1 µM; inhibitor
[10] = molecular target: FLT4 (Homo sapiens, UniProt P35916); conditions: 1 µM; inhibitor
[11] = molecular target: GRK4 (Homo sapiens, UniProt P32298); conditions: 1 µM; inhibitor
[12] = molecular target: HIPK2 (Homo sapiens, UniProt Q9H2X6); conditions: 1 µM; inhibitor
[13] = molecular target: IKKb (Homo sapiens, UniProt O14920); conditions: 1 µM; inhibitor
[14] = molecular target: ITK (Homo sapiens, UniProt Q08881); conditions: 1 µM; inhibitor
[15] = molecular target: MASTL (Homo sapiens, UniProt Q96GX5); conditions: 1 µM; inhibitor
[16] = molecular target: MEKK3 (Homo sapiens, UniProt Q99759); conditions: 1 µM; inhibitor
[17] = molecular target: MTOR (Homo sapiens, UniProt P42345); conditions: 1 µM; inhibitor
[18] = molecular target: NEK11 (Homo sapiens, UniProt Q8NG66); conditions: 1 µM; inhibitor
[19] = molecular target: PHKG2 (Homo sapiens, UniProt P15735); conditions: 1 µM; inhibitor
[20] = molecular target: PKCb (Homo sapiens, UniProt P05771); conditions: 1 µM; inhibitor
[21] = molecular target: TAOK3 (Homo sapiens, UniProt Q9H2K8); conditions: 1 µM; inhibitor
[22] = molecular target: TNK1 (Homo sapiens, UniProt Q13470); conditions: 1 µM; inhibitor
[23] = molecular target: TRKA (Homo sapiens, UniProt P04629); conditions: 1 µM; inhibitor
[24] = molecular target: TRKB (Homo sapiens, UniProt Q16620); conditions: 1 µM; inhibitor
[25] = molecular target: VEGFR1 (Homo sapiens, UniProt P17948); conditions: 1 µM; inhibitor
[26] = molecular target: VRK1 (Homo sapiens, UniProt Q99986); conditions: 1 µM; inhibitor
[27] = molecular target: DYRK1B (Homo sapiens, UniProt Q9Y463); test: biochemical; conditions: read-out: 21c Remaining activity, percent of control [%]
[28] = molecular target: LTK (Homo sapiens, UniProt P29376); test: biochemical; conditions: read-out: 21c Remaining activity, percent of control [%]
[29] = molecular target: MST3 (Homo sapiens, UniProt Q9Y6E0); test: biochemical; conditions: 1 µM; inhibitor
[30] = molecular target: STK33 (Homo sapiens, UniProt Q9BYT3); test: biochemical; conditions: read-out: 21c Remaining activity, percent of control [%]
[31] = molecular target: TTBK1 (Homo sapiens, UniProt Q5TCY1); test: biochemical; conditions: read-out: 21c Remaining activity, percent of control [%]

CK1g1, sequence (Q9HCP0 whole entry): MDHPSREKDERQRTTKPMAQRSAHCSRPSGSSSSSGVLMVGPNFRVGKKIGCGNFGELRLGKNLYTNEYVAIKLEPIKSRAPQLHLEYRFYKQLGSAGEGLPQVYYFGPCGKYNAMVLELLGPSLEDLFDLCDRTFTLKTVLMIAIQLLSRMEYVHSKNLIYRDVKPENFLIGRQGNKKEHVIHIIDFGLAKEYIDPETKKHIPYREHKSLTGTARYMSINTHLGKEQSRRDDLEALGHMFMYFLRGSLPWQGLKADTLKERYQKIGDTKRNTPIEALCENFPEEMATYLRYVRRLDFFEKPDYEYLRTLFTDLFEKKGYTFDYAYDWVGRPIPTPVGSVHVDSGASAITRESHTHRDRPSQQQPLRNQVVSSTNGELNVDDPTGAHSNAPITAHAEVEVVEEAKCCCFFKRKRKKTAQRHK
EPHA6, sequence (Q9UF33 whole entry): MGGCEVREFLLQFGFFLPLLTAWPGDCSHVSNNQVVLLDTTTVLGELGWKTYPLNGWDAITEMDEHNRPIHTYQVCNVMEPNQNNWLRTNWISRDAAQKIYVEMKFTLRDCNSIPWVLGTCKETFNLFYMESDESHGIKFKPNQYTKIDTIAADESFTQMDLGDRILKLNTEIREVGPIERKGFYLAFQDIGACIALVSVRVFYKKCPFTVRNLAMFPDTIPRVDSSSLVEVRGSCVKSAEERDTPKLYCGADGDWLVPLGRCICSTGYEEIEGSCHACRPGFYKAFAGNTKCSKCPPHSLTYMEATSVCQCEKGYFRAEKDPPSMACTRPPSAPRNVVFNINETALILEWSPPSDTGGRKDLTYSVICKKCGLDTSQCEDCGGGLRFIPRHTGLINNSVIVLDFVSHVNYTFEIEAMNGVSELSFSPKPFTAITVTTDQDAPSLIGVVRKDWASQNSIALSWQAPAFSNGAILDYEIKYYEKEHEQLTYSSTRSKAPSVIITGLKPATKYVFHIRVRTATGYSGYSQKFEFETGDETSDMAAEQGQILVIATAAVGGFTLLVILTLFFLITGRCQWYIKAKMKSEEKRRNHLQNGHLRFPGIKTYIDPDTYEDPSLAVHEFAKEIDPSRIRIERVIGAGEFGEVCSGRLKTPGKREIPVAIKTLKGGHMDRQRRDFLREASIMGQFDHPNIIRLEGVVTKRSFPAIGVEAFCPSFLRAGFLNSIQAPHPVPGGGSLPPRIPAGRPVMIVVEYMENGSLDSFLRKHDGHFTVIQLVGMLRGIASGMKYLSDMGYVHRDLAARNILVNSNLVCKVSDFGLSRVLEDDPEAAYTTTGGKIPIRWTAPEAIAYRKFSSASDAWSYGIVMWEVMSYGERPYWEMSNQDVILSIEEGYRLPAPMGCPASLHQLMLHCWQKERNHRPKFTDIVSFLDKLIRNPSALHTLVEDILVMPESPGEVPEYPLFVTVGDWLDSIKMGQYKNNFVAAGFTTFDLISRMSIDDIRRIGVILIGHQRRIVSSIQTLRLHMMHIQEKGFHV
EPHA3, sequence (P29320 whole entry): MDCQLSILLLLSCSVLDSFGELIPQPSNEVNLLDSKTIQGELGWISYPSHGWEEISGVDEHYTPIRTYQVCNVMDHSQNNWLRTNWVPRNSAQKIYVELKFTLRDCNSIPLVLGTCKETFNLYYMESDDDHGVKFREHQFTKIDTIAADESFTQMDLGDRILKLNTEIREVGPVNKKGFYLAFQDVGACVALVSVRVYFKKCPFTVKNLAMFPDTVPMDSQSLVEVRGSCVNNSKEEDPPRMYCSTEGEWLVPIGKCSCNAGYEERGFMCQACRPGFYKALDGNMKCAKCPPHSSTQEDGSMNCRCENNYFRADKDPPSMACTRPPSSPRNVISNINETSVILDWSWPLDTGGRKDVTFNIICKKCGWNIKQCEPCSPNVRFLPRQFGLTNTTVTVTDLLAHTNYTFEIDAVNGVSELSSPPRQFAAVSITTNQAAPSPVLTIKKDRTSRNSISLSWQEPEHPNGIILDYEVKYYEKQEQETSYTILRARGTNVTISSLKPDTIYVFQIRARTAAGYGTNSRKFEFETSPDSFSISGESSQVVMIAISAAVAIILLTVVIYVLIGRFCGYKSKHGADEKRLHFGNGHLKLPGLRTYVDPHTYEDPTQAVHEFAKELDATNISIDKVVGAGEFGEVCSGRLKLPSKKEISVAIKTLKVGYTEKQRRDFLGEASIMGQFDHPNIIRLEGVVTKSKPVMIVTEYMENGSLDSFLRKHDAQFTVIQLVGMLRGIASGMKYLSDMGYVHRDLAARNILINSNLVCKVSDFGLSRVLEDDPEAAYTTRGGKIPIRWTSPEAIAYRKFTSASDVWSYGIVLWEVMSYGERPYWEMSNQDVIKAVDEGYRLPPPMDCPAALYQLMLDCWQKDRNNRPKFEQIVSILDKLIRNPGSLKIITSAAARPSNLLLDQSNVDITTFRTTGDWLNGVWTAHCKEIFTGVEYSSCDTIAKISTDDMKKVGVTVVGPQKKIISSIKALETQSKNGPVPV
CDK3/CycC, sequence (Q00526 whole entry): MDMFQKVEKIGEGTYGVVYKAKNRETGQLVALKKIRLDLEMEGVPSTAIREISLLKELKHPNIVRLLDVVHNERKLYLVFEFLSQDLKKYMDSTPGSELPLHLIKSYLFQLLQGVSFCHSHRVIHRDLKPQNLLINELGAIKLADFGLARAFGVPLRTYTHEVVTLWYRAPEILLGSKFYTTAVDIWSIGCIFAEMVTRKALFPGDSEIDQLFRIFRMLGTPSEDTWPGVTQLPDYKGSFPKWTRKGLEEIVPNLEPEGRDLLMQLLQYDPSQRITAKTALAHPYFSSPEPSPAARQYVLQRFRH
CDK3/CycC, sequence (P24863 whole entry partner): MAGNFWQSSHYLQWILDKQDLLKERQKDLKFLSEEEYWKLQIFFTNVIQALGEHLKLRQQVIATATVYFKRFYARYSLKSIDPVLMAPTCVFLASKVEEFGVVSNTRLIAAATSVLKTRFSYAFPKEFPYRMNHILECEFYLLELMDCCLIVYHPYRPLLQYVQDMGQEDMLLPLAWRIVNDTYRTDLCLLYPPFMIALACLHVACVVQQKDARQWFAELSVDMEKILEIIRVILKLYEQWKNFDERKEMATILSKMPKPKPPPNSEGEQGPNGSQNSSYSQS
TAOK3, sequence (Q9H2K8 whole entry): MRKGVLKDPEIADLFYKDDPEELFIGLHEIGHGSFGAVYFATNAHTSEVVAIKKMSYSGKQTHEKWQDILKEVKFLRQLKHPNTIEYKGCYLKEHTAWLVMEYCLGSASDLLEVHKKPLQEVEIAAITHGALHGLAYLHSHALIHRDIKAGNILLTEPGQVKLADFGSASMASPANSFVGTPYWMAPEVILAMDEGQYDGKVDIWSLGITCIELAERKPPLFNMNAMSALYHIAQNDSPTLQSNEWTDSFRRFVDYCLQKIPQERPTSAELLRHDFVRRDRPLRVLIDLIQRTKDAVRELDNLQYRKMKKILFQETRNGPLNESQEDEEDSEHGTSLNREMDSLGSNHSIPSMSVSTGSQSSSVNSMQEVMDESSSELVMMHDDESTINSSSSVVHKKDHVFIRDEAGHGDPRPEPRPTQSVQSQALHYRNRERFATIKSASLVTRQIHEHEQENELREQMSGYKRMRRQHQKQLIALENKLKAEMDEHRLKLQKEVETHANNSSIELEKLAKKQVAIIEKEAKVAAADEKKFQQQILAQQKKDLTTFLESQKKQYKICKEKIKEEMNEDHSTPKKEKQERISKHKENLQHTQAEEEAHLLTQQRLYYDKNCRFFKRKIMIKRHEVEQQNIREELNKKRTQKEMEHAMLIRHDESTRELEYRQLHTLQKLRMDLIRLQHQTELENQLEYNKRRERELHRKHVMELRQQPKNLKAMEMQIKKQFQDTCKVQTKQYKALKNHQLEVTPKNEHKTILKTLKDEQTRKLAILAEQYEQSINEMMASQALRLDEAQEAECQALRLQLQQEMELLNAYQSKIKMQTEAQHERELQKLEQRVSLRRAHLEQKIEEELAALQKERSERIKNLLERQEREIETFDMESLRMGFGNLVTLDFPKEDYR
VRK1, sequence (Q99986 whole entry): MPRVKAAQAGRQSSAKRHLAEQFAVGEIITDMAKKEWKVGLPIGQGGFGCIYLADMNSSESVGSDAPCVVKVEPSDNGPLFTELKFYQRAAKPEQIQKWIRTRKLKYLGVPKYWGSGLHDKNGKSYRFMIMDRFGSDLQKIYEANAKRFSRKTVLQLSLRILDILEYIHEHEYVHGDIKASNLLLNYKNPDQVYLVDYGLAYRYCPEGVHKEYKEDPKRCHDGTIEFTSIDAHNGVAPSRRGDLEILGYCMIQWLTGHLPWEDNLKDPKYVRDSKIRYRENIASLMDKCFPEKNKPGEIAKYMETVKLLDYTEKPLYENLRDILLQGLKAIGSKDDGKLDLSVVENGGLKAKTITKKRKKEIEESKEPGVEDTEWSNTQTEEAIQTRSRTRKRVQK
LIMK2, sequence (P53671 whole entry): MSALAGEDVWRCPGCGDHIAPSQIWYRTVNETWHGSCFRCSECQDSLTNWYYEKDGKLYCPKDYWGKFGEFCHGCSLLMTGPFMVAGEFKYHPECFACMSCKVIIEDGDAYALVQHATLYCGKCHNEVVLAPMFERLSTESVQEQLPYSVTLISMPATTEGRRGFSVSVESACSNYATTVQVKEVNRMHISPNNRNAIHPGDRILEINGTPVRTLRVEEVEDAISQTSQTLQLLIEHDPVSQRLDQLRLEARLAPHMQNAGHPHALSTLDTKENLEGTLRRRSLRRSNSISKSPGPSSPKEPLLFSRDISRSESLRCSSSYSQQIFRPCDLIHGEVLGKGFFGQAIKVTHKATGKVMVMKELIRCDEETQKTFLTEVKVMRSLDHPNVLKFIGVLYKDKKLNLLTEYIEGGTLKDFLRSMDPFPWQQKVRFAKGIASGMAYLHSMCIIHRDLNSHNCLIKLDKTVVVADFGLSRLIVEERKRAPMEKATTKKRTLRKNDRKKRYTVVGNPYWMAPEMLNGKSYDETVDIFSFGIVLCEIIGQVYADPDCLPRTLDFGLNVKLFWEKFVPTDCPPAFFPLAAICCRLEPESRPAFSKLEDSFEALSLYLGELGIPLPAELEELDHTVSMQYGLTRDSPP

- EC50 [1]: 1.4 µM
- 21c Remaining activity, percent of control [%] [2]: 80.2%
- 21c Remaining activity, percent of control [%] [3]: 87.0%
- 21c Remaining activity, percent of control [%] [4]: 102.2%
- 21c Remaining activity, percent of control [%] [5]: 115.1%
- 21c Remaining activity, percent of control [%] [6]: 114.2%
- 21c Remaining activity, percent of control [%] [7]: 97.7%
- 21c Remaining activity, percent of control [%] [8]: 97.4%
- 21c Remaining activity, percent of control [%] [9]: 101.7%
- 21c Remaining activity, percent of control [%] [10]: 93.9%
- 21c Remaining activity, percent of control [%] [11]: 112.1%
- 21c Remaining activity, percent of control [%] [12]: 74.8%
- 21c Remaining activity, percent of control [%] [13]: 94.0%
- 21c Remaining activity, percent of control [%] [14]: 99.7%
- 21c Remaining activity, percent of control [%] [15]: 118.0%
- 21c Remaining activity, percent of control [%] [16]: 105.8%
- 21c Remaining activity, percent of control [%] [17]: 99.2%
- 21c Remaining activity, percent of control [%] [18]: 93.3%
- 21c Remaining activity, percent of control [%] [19]: 98.0%
- 21c Remaining activity, percent of control [%] [20]: 82.5%
- 21c Remaining activity, percent of control [%] [21]: 102.4%
- 21c Remaining activity, percent of control [%] [22]: 96.2%
- 21c Remaining activity, percent of control [%] [23]: 90.8%
- 21c Remaining activity, percent of control [%] [24]: 79.0%
- 21c Remaining activity, percent of control [%] [25]: 100.3%
- 21c Remaining activity, percent of control [%] [26]: 91.5%
- remaining activity at 1 µM [27]: 79.7%
- remaining activity at 1 µM [28]: 92%
- 21c Remaining activity, percent of control [%] [29]: 13.5%
- remaining activity at 1 µM [30]: 88.7%
- remaining activity at 1 µM [31]: 112%
Compound: O=C1NCCCCCNc2nc(c3ccccc3n2)Nc2cc1[nH]n2 [21c, (Z)-3^1H-2,5,11-triaza-1(4,2)-quinazolina-3(3,5)-pyrazolacycloundecaphan-4-one]
